In PMC2887388 (Journal of natural products, 2009):

What was measured:
[1] = test system: HT-29 human colon cancer cell line; assay: Cytotoxicity assay against HT-29 human colon cancer cell line; format: cell-based; settings: HT-29, read-out: cytotoxicity ED50
HT-29 cells = assay: In vivo hollow fiber assay, HT-29 cells; parameters: species or system human; settings: cells implanted at i.p. site; doses 2.5, 5, 10, 20 mg/kg
[2] = test system: LNCaP (hormone-dependent human prostate cancer) cells; assay: In vivo hollow fiber assay, LNCaP cells; settings: cells implanted at i.p. site; doses 2.5, 5, 10, 20 mg/kg

| Structure (SMILES) | IC50 [1] [µM] | activity in hollow fiber assay (HT-29) (HT-29 cells) | activity in hollow fiber assay (LNCaP) [2] |
| --- | --- | --- | --- |
| COc1c(O)cc2oc3cc(O)c4c(c3c(=O)c2c1CC=C(C)C)OC(C)(C)C(O)C4 (centres unmarked) [Compound 2, 11-hydroxy-1-isomangostin] | > 10 | – | – |
| COc1c(O)cc2oc3cc4c(c(O)c3c(=O)c2c1CC=C(C)C)[C@@H](c1c(O)c(CC=C(C)C)c(O)c2c(=O)c3c(CC=C(C)C)c(OC)c(O)cc3oc12)[C@H](C(C)(C)O)O4 [Compound 11, cratoxyxanthone] | > 10 | – | – |
| COc1cc2oc3cc(O)c(OC)c(CC=C(C)C)c3c(=O)c2c2c1CC(O)C(C)(C)O2 (centres unmarked) [Compound 1, 11-hydroxy-3-O-methyl-1-isomangostin] | > 10 | – | – |
| COc1c(O)cc2oc3cc(O)c(CC=C(C)C)c(O)c3c(=O)c2c1CC=C(C)C [Compound 5, α-mangostin] | – | inactive | inactive |
